Source: ChEMBL document CHEMBL2062394, “Azide-alkyne cycloaddition en route to novel 1H-1,2,3-triazole tethered isatin conjugates with in vitro cytotoxic evaluation” (Eur J Med Chem, 2012)

Tested on: Caco-2
Test: Growth inhibition of human Caco2 cells at 10 uM after 48 hrs by SRB assay
Assay type: functional
Details: Caco-2, 48 h, read-out: GI

SMILES | inhibition of growth at 10 µM
O=C1C(=O)N(CCn2cc(CN3C(=O)C(=O)c4cc(Br)ccc43)nn2)c2ccccc21 | 1%
O=C1C(=O)N(CCn2cc(CN3C(=O)C(=O)c4ccccc43)nn2)c2ccc(F)cc21 | 0%

Tested on: A549
Test: Growth inhibition of human A549 cells after 48 hrs by SRB assay
Assay type: functional, cell-based
Details: not given

SMILES | growth inhibition (GI)
O=C1C(=O)N(CCn2cc(CN3C(=O)C(=O)c4cc(Br)ccc43)nn2)c2ccccc21 | Dose-dependent effect
O=C1C(=O)N(CCn2cc(CN3C(=O)C(=O)c4ccccc43)nn2)c2ccc(F)cc21 | Dose-dependent effect

Same assay, conditions: A549, 48 h

IC50 | SMILES
14.6 µM | O=C1C(=O)N(CCn2cc(CN3C(=O)C(=O)c4cc(Br)ccc43)nn2)c2ccccc21
> 100 µM | O=C1C(=O)N(CCn2cc(CN3C(=O)C(=O)c4ccccc43)nn2)c2ccc(F)cc21

Tested on: PC-3
Test: Growth inhibition of human PC3 cells at 100 uM after 48 hrs by SRB assay
Assay type: functional
Details: PC-3, 48 h, read-out: GI

SMILES | inhibition of growth at 100 µM
O=C1C(=O)N(CCn2cc(CN3C(=O)C(=O)c4cc(Br)ccc43)nn2)c2ccccc21 | 100%
O=C1C(=O)N(CCn2cc(CN3C(=O)C(=O)c4ccccc43)nn2)c2ccc(F)cc21 | 82%

Tested on: Caco-2
Test: Growth inhibition of human Caco2 cells at 50 uM after 48 hrs by SRB assay
Assay type: functional
Details: Caco-2, 48 h, read-out: GI

SMILES | inhibition of growth at 50 µM
O=C1C(=O)N(CCn2cc(CN3C(=O)C(=O)c4cc(Br)ccc43)nn2)c2ccccc21 | 10%
O=C1C(=O)N(CCn2cc(CN3C(=O)C(=O)c4ccccc43)nn2)c2ccc(F)cc21 | 1%

Tested on: THP-1
Test: Growth inhibition of human THP1 cells at 10 uM after 48 hrs by SRB assay
Assay type: functional
Details: THP-1, 48 h, read-out: GI

SMILES | inhibition of growth at 10 µM
O=C1C(=O)N(CCn2cc(CN3C(=O)C(=O)c4cc(Br)ccc43)nn2)c2ccccc21 | 10%
O=C1C(=O)N(CCn2cc(CN3C(=O)C(=O)c4ccccc43)nn2)c2ccc(F)cc21 | 8%

Tested on: PC-3
Test: Growth inhibition of human PC3 cells at 50 uM after 48 hrs by SRB assay
Assay type: functional
Details: PC-3, 48 h, read-out: GI

SMILES | inhibition of growth at 50 µM
O=C1C(=O)N(CCn2cc(CN3C(=O)C(=O)c4cc(Br)ccc43)nn2)c2ccccc21 | 99%
O=C1C(=O)N(CCn2cc(CN3C(=O)C(=O)c4ccccc43)nn2)c2ccc(F)cc21 | 32%

Tested on: A549
Test: Growth inhibition of human A549 cells at 100 uM after 48 hrs by SRB assay
Assay type: functional
Details: A549, 48 h, read-out: GI

SMILES | inhibition of growth at 100 µM
O=C1C(=O)N(CCn2cc(CN3C(=O)C(=O)c4cc(Br)ccc43)nn2)c2ccccc21 | 97%
O=C1C(=O)N(CCn2cc(CN3C(=O)C(=O)c4ccccc43)nn2)c2ccc(F)cc21 | 32%

Tested on: Caco-2
Test: Growth inhibition of human Caco2 cells at 100 uM after 48 hrs by SRB assay
Assay type: functional
Details: Caco-2, 48 h, read-out: GI

SMILES | inhibition of growth at 100 µM
O=C1C(=O)N(CCn2cc(CN3C(=O)C(=O)c4cc(Br)ccc43)nn2)c2ccccc21 | 25%
O=C1C(=O)N(CCn2cc(CN3C(=O)C(=O)c4ccccc43)nn2)c2ccc(F)cc21 | 10%

Tested on: PC-3
Test: Growth inhibition of human PC3 cells at 10 uM after 48 hrs by SRB assay
Assay type: functional
Details: PC-3, 48 h, read-out: GI

SMILES | inhibition of growth at 10 µM
O=C1C(=O)N(CCn2cc(CN3C(=O)C(=O)c4cc(Br)ccc43)nn2)c2ccccc21 | 94%
O=C1C(=O)N(CCn2cc(CN3C(=O)C(=O)c4ccccc43)nn2)c2ccc(F)cc21 | 0%

Tested on: A549
Test: Growth inhibition of human A549 cells at 50 uM after 48 hrs by SRB assay
Assay type: functional
Details: A549, 48 h, read-out: GI

SMILES | inhibition of growth at 50 µM
O=C1C(=O)N(CCn2cc(CN3C(=O)C(=O)c4cc(Br)ccc43)nn2)c2ccccc21 | 96%
O=C1C(=O)N(CCn2cc(CN3C(=O)C(=O)c4ccccc43)nn2)c2ccc(F)cc21 | 17%

Tested on: A549
Test: Growth inhibition of human A549 cells at 10 uM after 48 hrs by SRB assay
Assay type: functional
Details: A549, 48 h, read-out: GI

SMILES | inhibition of growth at 10 µM
O=C1C(=O)N(CCn2cc(CN3C(=O)C(=O)c4cc(Br)ccc43)nn2)c2ccccc21 | 41%
O=C1C(=O)N(CCn2cc(CN3C(=O)C(=O)c4ccccc43)nn2)c2ccc(F)cc21 | 6%

Tested on: PC-3
Test: Growth inhibition of human PC3 cells after 48 hrs by SRB assay
Assay type: functional, cell-based
Details: not given

SMILES | growth inhibition (GI)
O=C1C(=O)N(CCn2cc(CN3C(=O)C(=O)c4cc(Br)ccc43)nn2)c2ccccc21 | Dose-dependent effect
O=C1C(=O)N(CCn2cc(CN3C(=O)C(=O)c4ccccc43)nn2)c2ccc(F)cc21 | Dose-dependent effect

Same assay, conditions: PC-3, 48 h

IC50 | SMILES
< 1 µM | O=C1C(=O)N(CCn2cc(CN3C(=O)C(=O)c4cc(Br)ccc43)nn2)c2ccccc21
71.1 µM | O=C1C(=O)N(CCn2cc(CN3C(=O)C(=O)c4ccccc43)nn2)c2ccc(F)cc21

Tested on: THP-1
Test: Growth inhibition of human THP1 cells at 50 uM after 48 hrs by SRB assay
Assay type: functional
Details: THP-1, 48 h, read-out: GI

SMILES | inhibition of growth at 50 µM
O=C1C(=O)N(CCn2cc(CN3C(=O)C(=O)c4cc(Br)ccc43)nn2)c2ccccc21 | 53%
O=C1C(=O)N(CCn2cc(CN3C(=O)C(=O)c4ccccc43)nn2)c2ccc(F)cc21 | 15%

Tested on: THP-1
Test: Growth inhibition of human THP1 cells after 48 hrs by SRB assay
Assay type: functional, cell-based
Details: not given

SMILES | growth inhibition (GI)
O=C1C(=O)N(CCn2cc(CN3C(=O)C(=O)c4cc(Br)ccc43)nn2)c2ccccc21 | Dose-dependent effect
O=C1C(=O)N(CCn2cc(CN3C(=O)C(=O)c4ccccc43)nn2)c2ccc(F)cc21 | Dose-dependent effect

Same assay, conditions: THP-1, 48 h

IC50 | SMILES
51.9 µM | O=C1C(=O)N(CCn2cc(CN3C(=O)C(=O)c4cc(Br)ccc43)nn2)c2ccccc21
88.1 µM | O=C1C(=O)N(CCn2cc(CN3C(=O)C(=O)c4ccccc43)nn2)c2ccc(F)cc21

Tested on: THP-1
Test: Growth inhibition of human THP1 cells at 100 uM after 48 hrs by SRB assay
Assay type: functional
Details: THP-1, 48 h, read-out: GI

SMILES | inhibition of growth at 100 µM
O=C1C(=O)N(CCn2cc(CN3C(=O)C(=O)c4cc(Br)ccc43)nn2)c2ccccc21 | 88%
O=C1C(=O)N(CCn2cc(CN3C(=O)C(=O)c4ccccc43)nn2)c2ccc(F)cc21 | 90%

Tested on: Caco-2
Test: Growth inhibition of human Caco2 cells after 48 hrs by SRB assay
Assay type: functional, cell-based
Details: not given

SMILES | growth inhibition (GI)
O=C1C(=O)N(CCn2cc(CN3C(=O)C(=O)c4cc(Br)ccc43)nn2)c2ccccc21 | Dose-dependent effect
O=C1C(=O)N(CCn2cc(CN3C(=O)C(=O)c4ccccc43)nn2)c2ccc(F)cc21 | Dose-dependent effect

Same assay, conditions: Caco-2, 48 h

IC50 | SMILES
> 100 µM | O=C1C(=O)N(CCn2cc(CN3C(=O)C(=O)c4cc(Br)ccc43)nn2)c2ccccc21
> 100 µM | O=C1C(=O)N(CCn2cc(CN3C(=O)C(=O)c4ccccc43)nn2)c2ccc(F)cc21
